Assay results taken from patent publication US4107304A, “Oxo-imidazolidine substituted cephalosporins and antibacterial compositions and methods of combatting bacteria employing them” (Bayer Aktiengesellschaft, priority 1974, dated 1978).

Columns and labels:
[1] = tested on: Corynebacterium diphtheria gravis; test: In vitro turbidity test, 24 h in Muller-Hinton broth; type: cell-based; conditions: 100 μg/ml
[2] = tested on: Serratia marcescens; test: as above; type: cell-based; conditions: 100 μg/ml
[3] = tested on: Bordetella bronchiseptica; test: as above; type: cell-based; conditions: 100 μg/ml
[4] = tested on: Haemophilis influenzae; test: as above; type: cell-based; conditions: 100 μg/ml
[5] = tested on: Escherichia coli BE; test: as above; type: cell-based; conditions: 100 μg/ml
[6] = tested on: Enterobacter aerogenes sp.; test: as above; type: cell-based; conditions: 100 μg/ml
[7] = tested on: Lactobacillus sp.; test: as above; type: cell-based; conditions: 100 μg/ml
[8] = tested on: Brucella sp.; type: cell-based; conditions: 100 μg/ml, 24 hours
[9] = tested on: Proteus, indole negative and indole positive sp.; test: In vitro turbidity test, 24 h in Muller-Hinton broth; type: cell-based; conditions: 100 μg/ml
[10] = tested on: Shigella sp.; test: as above; type: cell-based; conditions: 100 μg/ml
[11] = tested on: pasteurella pseudotuberculosis; type: cell-based; conditions: 100 μg/ml, 24 hours
[12] = tested on: Neisseria catarrhalis sp.; test: In vitro turbidity test, 24 h in Muller-Hinton broth; type: cell-based; conditions: 100 μg/ml
[13] = tested on: Staphylococcus aureus 133; test: as above; type: cell-based; conditions: 100 μg/ml
[14] = tested on: Salmonella sp.; test: as above; type: cell-based; conditions: 100 μg/ml
[15] = tested on: Diplococcus pneumoniae sp.; test: as above; type: cell-based; conditions: 100 μg/ml
[16] = tested on: Corynebacterium pyogenes M.; test: as above; type: cell-based; conditions: 100 μg/ml
[17] = tested on: Enterococcus sp.; test: as above; type: cell-based; conditions: 100 μg/ml
[18] = tested on: Providencia; test: as above; type: cell-based; conditions: 100 μg/ml
[19] = tested on: Streptococcus pyogenes W.; test: as above; type: cell-based; conditions: 100 μg/ml
[20] = tested on: Klebsiella pneumoniae; test: as above; type: cell-based; conditions: 100 μg/ml, 1 × 10^5 to 2 × 10^5 bacteria per milliliter, freedom from turbidity = active
[21] = Antibiotic activity of electropherogram spot (organism not stated); type: cell-based
[22] = tested on: Escherichia coli C 165; test: Animal experiments with white mice, intraperitoneal infection, survival after 24 hours; type: in vivo, white mice of strain CF1; conditions: C165, sc, subcutaneous, 1 administration 30 minutes after infection, dose at which 50% of infected animals survive, read-out: ED 50 after 24 hours
Protocol: (§1) The white mice of strain CF1 were infected intraperitoneally with the species of bacteria indicated. |Animal Experiments With White Mice |Determination of the ED 50 after 24 hours | Dose in mg of the cephalosporin from | Example 6 per kg of body weight |Germ (administered subcutaneously) |Therapy: 1 administration 30 minutes after infection. | The ED 50 is the dose at which 50% of the infected |animals still survive after 24 hours.

[23] = tested on: Staphylococcus aureus 133; test: as above; type: in vivo, white mice of strain CF1; conditions: Staphylococcus aureus, 133, sc, subcutaneous, 1 administration 30 minutes after infection, dose at which 50% of infected animals survive, read-out: ED 50 after 24 hours
Protocol: as §1

[24] = tested on: Escherichia coli; test: Antibiotic activity of electropherogram spot; type: cell-based; conditions: against Escherichia coli
[25] = tested on: Pseudomonas aeruginosa; test: Antibiotic activity of electropherogram spot; type: cell-based; conditions: against Pseudomonas aeruginosa
[26] = tested on: B. subtilis; test: Antibiotic activity of electropherogram spot; type: cell-based; conditions: against B. subtilis

SMILES	degree of turbidity [1]	degree of turbidity [2]	degree of turbidity [3]	degree of turbidity [4]	degree of turbidity [5]	degree of turbidity [6]	degree of turbidity [7]	degree of turbidity [8]	degree of turbidity [9]	degree of turbidity [10]	degree of turbidity [11]	degree of turbidity [12]	degree of turbidity [13]	degree of turbidity [14]	degree of turbidity [15]	degree of turbidity [16]	degree of turbidity [17]	degree of turbidity [18]	degree of turbidity [19]	degree of turbidity [20]	also measured
CC(=O)OCC1=C(C(=O)O)N2C(=O)[C@@H](NC(=O)[C@H](NC(=O)N3CCN(S(=O)(=O)c4ccccc4)C3=O)c3ccccc3)[C@H]2SC1 [Example 7, Sodium 7-{D-α-[(2-oxo-3-phenylsulphonyl-imidazolidin-1-yl)-carbonylamino]-phenylacetamido}-3-acetoxymethyl-ceph-3-em-4-carboxylate]	free from turbidity	free from turbidity	free from turbidity	free from turbidity	free from turbidity	free from turbidity	free from turbidity	free from turbidity	free from turbidity	free from turbidity	free from turbidity	free from turbidity	free from turbidity	free from turbidity	free from turbidity	free from turbidity	free from turbidity	free from turbidity	free from turbidity	free from turbidity	
CC(=O)OCC1=C(C(=O)O)N2C(=O)[C@@H](NC(=O)[C@H](NC(=O)N3CCN(S(C)(=O)=O)C3=O)c3ccccc3)[C@H]2SC1 [Example 6, Sodium 7-{D-α-[(2-oxo-3-mesyl-imidazolidin-1-yl)-carbonylamino]-phenylacetamido}-3-acetoxymethyl-ceph-3-em-4-carboxylate]	free from turbidity	free from turbidity	free from turbidity	free from turbidity	free from turbidity	free from turbidity	free from turbidity	free from turbidity	free from turbidity	free from turbidity	free from turbidity	free from turbidity	free from turbidity	free from turbidity	free from turbidity	free from turbidity	free from turbidity	free from turbidity	free from turbidity	free from turbidity	antibiotic activity of the electropherogram spot [21]: one spot with antibiotic activity; ED50 [22]: 200 mg/kg; ED50 [23]: 10 mg/kg
CC1=C(C(=O)O)N2C(=O)[C@@H](NC(=O)[C@H](NC(=O)N3CCNC3=O)c3ccccc3)[C@H]2SC1 [Example 2, 7-{D-α-[(2-Oxo-imidazolidin-1-yl)-carbonylamino]-phenylacetamido}-3-methyl-ceph-3-em-4-carboxylic acid]																					antibiotic activity of the electropherogram spot [21]: only one spot with antibiotic activity
CC(=O)OCC1=C(C(=O)O)N2C(=O)[C@@H](NC(=O)[C@H](NC(=O)N3CCN(C)C3=O)c3ccccc3)[C@H]2SC1 [Example 3, sodium 7-{D-α-[(3-methyl-2-oxo-imidazolidin-1-yl)-carbonylamino]-phenylacetamido}-3-acetoxymethyl-ceph-3-em-4-carboxylate]	free from turbidity	free from turbidity	free from turbidity	free from turbidity	free from turbidity	free from turbidity	free from turbidity	free from turbidity	free from turbidity	free from turbidity	free from turbidity	free from turbidity	free from turbidity	free from turbidity	free from turbidity	free from turbidity	free from turbidity	free from turbidity	free from turbidity	free from turbidity	
CC(=O)OCC1=C(C(=O)O)N2C(=O)[C@@H](NC(=O)[C@H](NC(=O)N3CCNC3=O)c3ccccc3)[C@H]2SC1 [Example 1, sodium 7-{D-α-[(2-oxo-imidazolidin-1-yl)carbonylamino]-phenylacetamido}-3-acetoxymethyl-ceph-3-em-4-carboxylate]																					antibiotic activity of the electropherogram spot [24]: only one spot with antibiotic activity; antibiotic activity of the electropherogram spot [25]: only one spot with antibiotic activity; antibiotic activity of the electropherogram spot [26]: only one spot with antibiotic activity
